Series [1] has as its system mouse collagen-induced arthritis model. The experiment in a line: Swelling suppression test using mouse collagen-induced arthritis model. The settings on record: dose of 100 mg/kg, repeated oral administration, male DBA/1J mice. It counts as in vivo. The protocol: A mouse collagen-induced arthritis model test was carried out by modifying the method of Mihara et al. (British Journal of Pharmacology, 154, 153 (2008)).
Male DBA/1J mice (supplied by Japan SLC, Inc.) were used as laboratory animals. An adjuvant prepared from a type II collagen solution (Collagen Research Center) and Adjuvant Complete Freund (manufactured by Difco Laboratories Ltd.) was intracutaneously administered twice to the bases of the tails of the mice under inhalation anesthesia with isoflurane (manufactured by Wako Pure Chemical Industries, Ltd.) for sensitization to prepare arthritis models.
Also, Adjuvant Complete Freund (manufactured by Difco Laboratories Ltd.) not containing type II collagen was administered by a similar method to obtain a control group. […]
During the test period, the swelling scoring of limbs (score 0: no disease, score 1: swelling and redness or weak swelling in the small joint of only one of the toes and the fingers, score 2: moderate swelling in the small joints of two or more of the toes and the fingers, score 3: strong swelling in the ankle or the forefoot wrist, score 4: overall strong swelling) was carried out to evaluate the drug efficacy of the test compound. When the total score of the solvent-administered group on the final day was defined as 100%, the rate of reduction in score (%) at each dose of the test compound was calculated.

In series [2] the test system is human large intestine cancer cell line (HCT-116) tumor. The experiment in a line: In vivo tumor growth inhibition test for human large intestine cancer cell line by combined use with chemotherapeutic. The settings on record: for Rate of suppression of tumor volume: IV-361 25 mg/kg/day oral, alone.
Method: The prepared cell suspension was subcutaneously injected at 0.1 mL/mouse to the right abdomens of female BALB nude mice (supplied by Charles River Laboratories Japan, Inc.).
Individuals whose tumor volume was within the range of 50 to 200 mm^3 were selected and grouped such that the tumor volume was almost equivalent. After the grouping, a test compound or only a solvent was administered in a repeated manner to the mice of each group as follows:
Single-agent administration group:
Control group: solvent (administered once a day)
5-FU, oxaliplatin, and irinotecan were intraperitoneally administered (5 mL/kg).
After a lapse of a predetermined period, the body weights of the mice of each group and the long diameter and short diameter of tumor were measured, and the tumor volume of the test compound-administered group with respect to the tumor volume of the control group was calculated as the rate of suppression of tumor volume (%).
The subject of series [3] is human large intestine cancer cell line HCT-116. The experiment in a line: In vitro cell growth inhibitory activity against human large intestine cancer line by combined use with chemotherapeutic. It counts as cell-based. The following applies: HCT-116, 3 days, IV-361 10 nM. Here is the method: A human large intestine cancer cell line HCT-116 (obtained from DS Pharma Biomedical Co., Ltd.) was cultured in a McCoy's 5A medium (manufactured by Thermo Fisher Scientific, Inc.) containing 10% fetal bovine serum (FBS) (manufactured by Thermo Fisher Scientific, Inc.) and 1% penicillin/streptomycin/amphotericin B (manufactured by Thermo Fisher Scientific, Inc.) and inoculated at 0.5 to 2.0×10^3 cells/well to a 96-well plate. The cells were cultured overnight in a carbon dioxide incubator of 37° C. containing 5% carbon dioxide. The medium was replaced with a fresh medium on the next day, and then, a mixed solution of a DMSO solution of a test compound (IV-361, 5-FU or SN-38) with varying concentrations and a cell culture medium (final DMSO concentration: 0.2%) was added thereto. The concentration of the test compound was 10 nM, the concentration of 5-FU (manufactured by Wako Pure Chemical Industries, Ltd.) was 1000 nM, and the concentration of SN-38 (manufactured by Tocris Bioscience) was adjusted to 1 nM to carry out the test. For a control group, a mixed solution of DMSO and a cell culture medium (final DMSO concentration: 0.2%) was used instead of the DMSO solution of the test compound.
After the addition of the DMSO solution of the test compound, the cells were cultured for 3 days in a carbon dioxide incubator. Then, the absorbance (measurement wavelength: 565 nm) of the medium in each group was measured by using In Vitro Toxicology Assay Kit Sulforhodamine B based (manufactured by Sigma-Aldrich Co. LLC.).
The rate of inhibition of growth (%) was calculated according to the expression given below. Specifically, in the case where the difference between the average absorbance before culture (day 0) and the average absorbance after culture in the test compound-administered group is the same as the difference between the average absorbance before culture (day 0) and the average absorbance after culture in the control group, the rate of inhibition of cell growth is 0%. Rate of inhibition of growth=(1−((Average absorbance of the test compound-administered group after culture)−(Average absorbance of the test compound-administered group on day 0))/((Average absorbance of the control group after culture)−(Average absorbance of the control group on day 0)))×100

Results on one compound are retold here after patent US10894798B2, “Substituted dihydropyrrolopyrazole derivative” (UBE INDUSTRIES, LTD., priority 2015, dated 2021).

Bounds are passed on as bounds.

For the compound `Cc1ccc(F)cc1NC(=O)N1Cc2c(NC(=O)C3([Si](C)(C)C)CCC3)n[nH]c2C1(C)C` [IV-361, N-(5-Fluoro-2-methylphenyl)-6,6-dimethyl-3-[1-(trimethylsilyl)cyclobutanecarboxamido]-4,6-dihydropyrrolo[3,4-c]pyrazole-5 (1H)-carboxamide], the “rate of inhibition (reduction in swelling score)” value in series [1] is reported as at least 50%. Also, the “rate of suppression of tumor volume in combined use with chemotherapeutic (5-FU, oxaliplatin or irinotecan)” value in series [2] (25 mg/kg IV-361 oral + 15 mg/kg 5-FU, 3 mg/kg oxaliplatin or 12.5 mg/kg irinotecan i.p., HCT-116 nude mice) was “excellent rate of suppression of tumor volume”. Also, the “Rate of suppression of tumor volume” value in series [2] (Table 52) is listed as 46%; in series [2] (Table 53), 46%; in series [2] (Table 54) it was 20%. The inhibition at 0.01 µM in series [3] (Homo sapiens, 72 h, single-agent treatment, read-out: Rate of inhibition of growth (%)) is 11%. For the same compound, the “cancer cell growth inhibitory effect in combined use with chemotherapeutic (5-FU or SN-38)” value in series [3] (5-FU 1000 nM, SN-38 1 nM) was “synergistic cancer cell growth inhibitory effect”.

One may read the inhibition as the relative decrease from the control value, in per cent.
